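The compound was tested at five concentrations on cells cultured in 96-well plates, with a 48-hour exposure period. TGI: concentration producing complete growth inhibition.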
What was measured:
Assay in all cases: DTP human tumour cell line panel, 48 h
[1] = system: OVCAR-3 ovarian
[2] = system: HOP-92 NSCLC
[3] = system: TK-10 renal
[4] = system: MDA-MB-231 breast
[5] = system: SW-620 colon
[6] = system: HS 578T breast
[7] = system: SF-295 CNS
[8] = system: HL-60(TB) leukemia
[9] = system: MDA-N
[10] = system: OVCAR-5 ovarian
[11] = system: HCC-2998 colon
[12] = system: COLO 205 colon
[13] = system: RPMI-8226 leukemia
[14] = system: A498 renal
[15] = system: SK-OV-3 ovarian
[16] = system: LOX IMVI melanoma
[17] = system: SK-MEL-5 melanoma
[18] = system: BT-549 breast
[19] = system: NCI-H23 lung
[20] = system: PC-3 prostate
[21] = system: K-562 leukemia
[22] = system: MALME-3M melanoma
[23] = system: A549 NSCLC
[24] = system: OVCAR-8 ovarian
[25] = system: HCT-116 colon
[26] = system: T-47D breast
[27] = system: HOP-62 NSCLC
[28] = system: CCRF-CEM leukemia
[29] = system: CAKI-1 renal
[30] = system: 786-0 renal
[31] = system: SR leukemia
[32] = system: KM12 colon
[33] = system: M14 melanoma
[34] = system: SF-268 CNS
[35] = system: IGROV1 ovarian
[36] = system: SK-MEL-2 melanoma
[37] = system: NCI-H226 lung
[38] = system: NCI-H460 lung
[39] = system: MCF7 breast
[40] = system: ACHN renal
[41] = system: HT29 colon
[42] = system: OVCAR-4 ovarian
[43] = system: NCI-H522 lung
[44] = system: NCI/ADR-RES ovarian
[45] = system: EKVX NSCLC
[46] = system: UACC-62 melanoma
[47] = system: SK-MEL-28 melanoma
[48] = system: MDA-MB-435
[49] = system: SNB-19 CNS
[50] = system: U251 CNS
[51] = system: UO-31 renal
[52] = system: SN12C renal
[53] = system: SNB-75 CNS
[54] = system: DU-145 prostate
[55] = system: RXF 393 renal
[56] = system: HCT-15 colon
[57] = system: UACC-257 melanoma
[58] = system: MOLT-4 leukemia
[59] = system: SF-539 CNS

## O=C(O)CCNc1ncnc2nc[nH]c12
[1]
  TGI: > 100 µM
[2]
  TGI: > 100 µM
[3]
  TGI: > 100 µM
[4]
  TGI: > 100 µM
[5]
  TGI: > 100 µM
[6]
  TGI: > 100 µM
[7]
  TGI: > 100 µM
[8]
  TGI: > 100 µM
[9]
  TGI: > 100 µM
[10]
  TGI: > 100 µM
[11]
  TGI: > 100 µM
[12]
  TGI: > 100 µM
[13]
  TGI: > 100 µM
[14]
  TGI: > 100 µM
[15]
  TGI: > 100 µM
[16]
  TGI: > 100 µM
[17]
  TGI: > 100 µM
[18]
  TGI: > 100 µM
[19]
  TGI: > 100 µM
[20]
  TGI: > 100 µM
[21]
  TGI: > 100 µM
[22]
  TGI: > 100 µM
[23]
  TGI: > 100 µM
[24]
  TGI: > 100 µM
[25]
  TGI: > 100 µM
[26]
  TGI: > 100 µM
[27]
  TGI: > 100 µM
[28]
  TGI: > 100 µM
[29]
  TGI: > 100 µM
[30]
  TGI: > 100 µM
[31]
  TGI: > 100 µM
[32]
  TGI: > 100 µM
[33]
  TGI: > 100 µM
[34]
  TGI: > 100 µM
[35]
  TGI: > 100 µM
[36]
  TGI: > 100 µM
[37]
  TGI: > 100 µM
[38]
  TGI: > 100 µM
[39]
  TGI: > 100 µM
[40]
  TGI: > 100 µM
[41]
  TGI: > 100 µM
[42]
  TGI: > 100 µM
[43]
  TGI: > 100 µM
[44]
  TGI: > 100 µM
[45]
  TGI: > 100 µM
[46]
  TGI: > 100 µM
[47]
  TGI: > 100 µM
[48]
  TGI: > 100 µM
[49]
  TGI: > 100 µM
[50]
  TGI: > 100 µM
[51]
  TGI: > 100 µM
[52]
  TGI: > 100 µM
[53]
  TGI: > 100 µM
[54]
  TGI: > 100 µM
[55]
  TGI: > 100 µM
[56]
  TGI: > 100 µM
[57]
  TGI: > 100 µM

## CC(=NNC(=S)Nc1ccccc1)c1cccc(C(C)=NNC(=S)Nc2ccccc2)n1
[1]
  TGI: > 28.5 µM
[2]
  TGI: > 50.2 µM
[3]
  TGI: > 100 µM
[4]
  TGI: > 100 µM
[5]
  TGI: > 100 µM
[6]
  TGI: > 100 µM
[7]
  TGI: > 42 µM
[8]
  TGI: > 20.6 µM
[9]
  TGI: > 100 µM
[10]
  TGI: > 100 µM
[11]
  TGI: > 100 µM
[12]
  TGI: > 100 µM
[13]
  TGI: > 31.4 µM
[14]
  TGI: > 80.8 µM
[15]
  TGI: > 84.5 µM
[16]
  TGI: > 100 µM
[17]
  TGI: > 40.1 µM
[18]
  TGI: > 100 µM
[58]
  TGI: > 30.1 µM
[19]
  TGI: > 100 µM
[20]
  TGI: > 100 µM
[21]
  TGI: > 53.5 µM
[22]
  TGI: 52.5 µM
[23]
  TGI: > 46.4 µM
[24]
  TGI: > 50.2 µM
[25]
  TGI: > 100 µM
[26]
  TGI: > 100 µM
[27]
  TGI: > 100 µM
[28]
  TGI: > 100 µM
[29]
  TGI: > 22.9 µM
[30]
  TGI: 35.4 µM
[32]
  TGI: > 100 µM
[33]
  TGI: 21.2 µM
[34]
  TGI: > 100 µM
[35]
  TGI: > 50.2 µM
[36]
  TGI: > 100 µM
[37]
  TGI: > 44 µM
[38]
  TGI: > 56.8 µM
[39]
  TGI: > 30.7 µM
[40]
  TGI: 6.86 µM
[41]
  TGI: > 100 µM
[59]
  TGI: 12.5 µM
[42]
  TGI: > 100 µM
[43]
  TGI: > 100 µM
[44]
  TGI: > 100 µM
[45]
  TGI: > 100 µM
[46]
  TGI: 26.7 µM
[47]
  TGI: > 100 µM
[48]
  TGI: > 100 µM
[49]
  TGI: > 100 µM
[50]
  TGI: > 100 µM
[51]
  TGI: > 52.1 µM
[52]
  TGI: > 100 µM
[53]
  TGI: > 100 µM
[54]
  TGI: > 100 µM
[55]
  TGI: 36.6 µM
[56]
  TGI: > 100 µM
[57]
  TGI: > 100 µM

## C/C(=N\N=C1/C(=O)OC(c2ccccc2)=C1C(=O)c1ccccc1)c1ccc([N+](=O)[O-])cc1
[1]
  TGI: > 100 µM
[2]
  TGI: 83.3 µM
[3]
  TGI: > 100 µM
[4]
  TGI: > 100 µM
[5]
  TGI: > 100 µM
[6]
  TGI: > 100 µM
[7]
  TGI: > 100 µM
[8]
  TGI: > 100 µM
[9]
  TGI: > 100 µM
[10]
  TGI: > 100 µM
[11]
  TGI: > 100 µM
[12]
  TGI: > 100 µM
[13]
  TGI: 48.9 µM
[14]
  TGI: > 100 µM
[15]
  TGI: > 100 µM
[16]
  TGI: > 100 µM
[17]
  TGI: > 100 µM
[18]
  TGI: 72.6 µM
[58]
  TGI: 52.7 µM
[19]
  TGI: > 100 µM
[20]
  TGI: > 100 µM
[21]
  TGI: > 100 µM
[22]
  TGI: > 100 µM
[23]
  TGI: > 100 µM
[24]
  TGI: > 100 µM
[25]
  TGI: > 100 µM
[26]
  TGI: > 100 µM
[27]
  TGI: > 100 µM
[28]
  TGI: 75.1 µM
[29]
  TGI: > 100 µM
[30]
  TGI: > 100 µM
[31]
  TGI: 34.6 µM
[32]
  TGI: > 100 µM
[33]
  TGI: > 100 µM
[34]
  TGI: > 100 µM
[35]
  TGI: > 100 µM
[36]
  TGI: > 100 µM
[37]
  TGI: 79.4 µM
[38]
  TGI: > 100 µM
[39]
  TGI: > 100 µM
[40]
  TGI: > 100 µM
[41]
  TGI: > 100 µM
[59]
  TGI: > 100 µM
[42]
  TGI: > 100 µM
[43]
  TGI: 83.5 µM
[44]
  TGI: > 100 µM
[45]
  TGI: > 100 µM
[46]
  TGI: > 100 µM
[47]
  TGI: > 100 µM
[48]
  TGI: > 100 µM
[49]
  TGI: > 100 µM
[50]
  TGI: > 100 µM
[51]
  TGI: > 100 µM
[52]
  TGI: > 100 µM
[54]
  TGI: > 100 µM
[55]
  TGI: > 100 µM
[56]
  TGI: 67.6 µM
[57]
  TGI: > 100 µM

Source: PubChem BioAssay (NCI)
